# In patent US11078202B2, “β-lactamase inhibitor and use thereof” (priority 2018, dated 2021):
# Counter-ions that a name gives are not always drawn.
# Experiments:
# Type in all cases: cell-based
# [1] = system: Pseudomonas aeruginosa XNWB 0008; test: MIC assay of test compounds combined with ceftazidime (8 μg/mL); details: ceftazidime 8 μg/mL fixed
# Procedure, shortened: (§1)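 Colonies from 20-24 h TSA plates (35±2 °C) → saline, OD600 0.1-0.15 → 300-fold dilution in 1.1×CAMHB → added to compound plus fixed antibiotic wells, growth and sterility controls included → 16-20 h at 35±2 °C → MIC by CLSI criteria.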
# [2] = system: Klebsiella pneumoniae XNWB 0001; test: as above; details: ceftazidime 8 μg/mL fixed
# Procedure, shortened: as §1
# [3] = system: Acinetobacter baumannii XNWB 0007; test: as above; details: ceftazidime 8 μg/mL fixed
# Procedure, shortened: as §1
# [4] = system: Klebsiella pneumoniae XNWB 0003; test: as above; details: ceftazidime 8 μg/mL fixed
# Procedure, shortened: as §1
# [5] = system: Klebsiella pneumoniae XNWB 0002; test: as above; details: ceftazidime 8 μg/mL fixed
# Procedure, shortened: as §1
# [6] = system: Klebsiella pneumoniae XNWB 0006; test: as above; details: ceftazidime 8 μg/mL fixed
# Procedure, shortened: as §1
# [7] = system: Klebsiella pneumoniae XNWB 0004; test: as above; details: ceftazidime 8 μg/mL fixed
# Procedure, shortened: as §1
# [8] = system: Klebsiella pneumoniae XNWB 0005; test: as above; details: ceftazidime 8 μg/mL fixed
# Procedure, shortened: as §1
# [9] = system: Pseudomonas aeruginosa XNWB 0008; test: MIC assay of test compounds combined with imipenem (4 μg/mL); details: imipenem 4 μg/mL fixed
# Procedure, shortened: as §1
# [10] = system: Klebsiella pneumoniae XNWB 0001; test: as above; details: imipenem 4 μg/mL fixed
# Procedure, shortened: as §1
# [11] = system: Acinetobacter baumannii XNWB 0007; test: as above; details: imipenem 4 μg/mL fixed
# Procedure, shortened: as §1
# [12] = system: Klebsiella pneumoniae XNWB 0003; test: as above; details: imipenem 4 μg/mL fixed
# Procedure, shortened: as §1
# [13] = system: Klebsiella pneumoniae XNWB 0002; test: as above; details: imipenem 4 μg/mL fixed
# Procedure, shortened: as §1
# [14] = system: Klebsiella pneumoniae XNWB 0006; test: as above; details: imipenem 4 μg/mL fixed
# Procedure, shortened: as §1
# [15] = system: Klebsiella pneumoniae XNWB 0004; test: as above; details: imipenem 4 μg/mL fixed
# Procedure, shortened: as §1
# [16] = system: Klebsiella pneumoniae XNWB 0005; test: as above; details: imipenem 4 μg/mL fixed
# Procedure, shortened: as §1
SMILES,The minimum concentration of test compounds combined with ceftazidime (8 μg/mL) for bacteriostasis [1],The minimum concentration of test compounds combined with ceftazidime (8 μg/mL) for bacteriostasis [2],The minimum concentration of test compounds combined with ceftazidime (8 μg/mL) for bacteriostasis [3],The minimum concentration of test compounds combined with ceftazidime (8 μg/mL) for bacteriostasis [4],The minimum concentration of test compounds combined with ceftazidime (8 μg/mL) for bacteriostasis [5],The minimum concentration of test compounds combined with ceftazidime (8 μg/mL) for bacteriostasis [6],The minimum concentration of test compounds combined with ceftazidime (8 μg/mL) for bacteriostasis [7],The minimum concentration of test compounds combined with ceftazidime (8 μg/mL) for bacteriostasis [8],The minimum concentration of test compounds combined with imipenem (4 μg/mL) for bacteriostasis [9],The minimum concentration of test compounds combined with imipenem (4 μg/mL) for bacteriostasis [10],The minimum concentration of test compounds combined with imipenem (4 μg/mL) for bacteriostasis [11],The minimum concentration of test compounds combined with imipenem (4 μg/mL) for bacteriostasis [12],The minimum concentration of test compounds combined with imipenem (4 μg/mL) for bacteriostasis [13],The minimum concentration of test compounds combined with imipenem (4 μg/mL) for bacteriostasis [14],The minimum concentration of test compounds combined with imipenem (4 μg/mL) for bacteriostasis [15],The minimum concentration of test compounds combined with imipenem (4 μg/mL) for bacteriostasis [16]
"NC1(Cc2nnc([C@@H]3CC4(CC4)[C@@H]4CN3C(=O)N4OS(=O)(=O)O)o2)CC1 [Example 21, (1R,4S)-4-(5-((1-aminocyclopropyl)methyl)-1,3,4-oxadiazol-2-yl)-6-oxo-5,7-diazaspiro [bicyclo[3.2.1]octane-2,1′-cyclopropan]-7-yl sulfate]",C (C: 16-128 μg/mL),A (A: <8 μg/mL),C (C: 16-128 μg/mL),A (A: <8 μg/mL),A (A: <8 μg/mL),A (A: <8 μg/mL),B (B: 8-16 μg/mL),B (B: 8-16 μg/mL),C (C: 16-128 μg/mL),A (A: <8 μg/mL),C (C: 16-128 μg/mL),A (A: <8 μg/mL),A (A: <8 μg/mL),A (A: <8 μg/mL),A (A: <8 μg/mL),A (A: <8 μg/mL)
"CNC1(Cc2nnc([C@@H]3CC4(CC4)[C@@H]4CN3C(=O)N4OS(=O)(=O)O)o2)CC1 [Example 22, (1R,4S)-4-(5-((1-(methylamino)cyclopropyl)methyl)-1,3,4-oxadiazol-2-yl)-6-oxo-5,7-diazaspiro[bicyclo[3.2.1]octane-2,1′-cyclopropan]-7-yl sulfate]",C (C: 16-128 μg/mL),B (B: 8-16 μg/mL),C (C: 16-128 μg/mL),B (B: 8-16 μg/mL),A (A: <8 μg/mL),A (A: <8 μg/mL),C (C: 16-128 μg/mL),B (B: 8-16 μg/mL),C (C: 16-128 μg/mL),A (A: <8 μg/mL),C (C: 16-128 μg/mL),A (A: <8 μg/mL),A (A: <8 μg/mL),A (A: <8 μg/mL),A (A: <8 μg/mL),A (A: <8 μg/mL)
"O=C1N2C[C@H](N1OS(=O)(=O)O)C1(CC1)C[C@H]2c1nnc(CC2CNC2)o1 [Example 23, (1R,4S)-4-(5-(azetidin-3-ylmethyl)-1,3,4-oxadiazol-2-yl)-6-oxo-5,7-diazaspiro[bicycle [3.2.1]octane-2,1′-cyclopropan]-7-yl sulfate]",B (B: 8-16 μg/mL),A (A: <8 μg/mL),C (C: 16-128 μg/mL),A (A: <8 μg/mL),A (A: <8 μg/mL),A (A: <8 μg/mL),A (A: <8 μg/mL),A (A: <8 μg/mL),A (A: <8 μg/mL),A (A: <8 μg/mL),B (B: 8-16 μg/mL),A (A: <8 μg/mL),A (A: <8 μg/mL),A (A: <8 μg/mL),A (A: <8 μg/mL),A (A: <8 μg/mL)
"CNCCc1nnc([C@@H]2CC3(CC3)[C@@H]3CN2C(=O)N3OS(=O)(=O)O)o1 [Example 24, (1R,4S)-4-(5-(2-(methylamino)ethyl)-1,3,4-oxadiazol-2-yl)-6-oxo-5,7-diazaspiro[bicyclo[3.2.1]octane-2,1′-cyclopropan]-7-yl sulfate]",C (C: 16-128 μg/mL),A (A: <8 μg/mL),C (C: 16-128 μg/mL),A (A: <8 μg/mL),A (A: <8 μg/mL),A (A: <8 μg/mL),A (A: <8 μg/mL),A (A: <8 μg/mL),B (B: 8-16 μg/mL),A (A: <8 μg/mL),A (A: <8 μg/mL),A (A: <8 μg/mL),A (A: <8 μg/mL),A (A: <8 μg/mL),A (A: <8 μg/mL),A (A: <8 μg/mL)
"N[C@H]1C[C@H](c2cc([C@@H]3CC4(CC4)[C@@H]4CN3C(=O)N4OS(=O)(=O)O)no2)C1 [Example 25, (1R,4S)-4-(5-((1S,3S)-3-aminocyclobutyl)isoxazol-3-yl)-6-oxo-5,7-diazaspiro[bicycle [3.2.1]octane-2,1′-cyclopropan]-7-yl sulfate]",B (B: 8-16 μg/mL),A (A: <8 μg/mL),C (C: 16-128 μg/mL),A (A: <8 μg/mL),A (A: <8 μg/mL),A (A: <8 μg/mL),B (B: 8-16 μg/mL),A (A: <8 μg/mL),A (A: <8 μg/mL),A (A: <8 μg/mL),C (C: 16-128 μg/mL),A (A: <8 μg/mL),A (A: <8 μg/mL),A (A: <8 μg/mL),A (A: <8 μg/mL),A (A: <8 μg/mL)
